# The supplement of paper PMC10307832
# Compound: COC1=CC=C(C=C1)CN2C=CC3=C2C=C(C=C3)C(=O)NO + CS(=O)(=O)CCNCc1ccc(-c2ccc3ncnc(Nc4ccc(OCc5cccc(F)c5)c(Cl)c4)c3c2)o1 [Lapatinib] (partner 2 µM)
# Assay: relative viability (nuclei count vs DMSO), 5 days (fraction); higher = more cells survive
# Conditions: first compound 0.08 µM
# Procedure, shortened: (§1)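 Cells from lung cancer lines were seeded into 1536-well plates and, one day later, dosed by pin tool. Treatments were either a single drug or a fixed dose of an anchor drug with five library-drug doses (not always all listed) in √10 steps. After 5 days, nuclei were stained in a one-step fixation (final 0.05% Triton X-100, 1% formaldehyde, 1 ug/ml Hoechst) and counted on 4× images, and relative viability is the treated-to-vehicle nuclei ratio, as the median of duplicate plates.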
row,Cell Line,relative viability
1,LC-2-ad,0.259
2,NCI-H1651,0.425
3,COR-L23,0.736
4,HCC-827,0.189
5,RERF-LC-KJ,0.428
6,NCI-H1563,0.769
7,NCI-H3122,0.959
8,BEN,0.552
9,UMC-11,0.374
10,NCI-H2085,0.336
11,NCI-H727,0.775
12,201T,1
13,NCI-H2228,0.864
14,LOU-NH91,0.561
15,NCI-H1666,0.428
16,NCI-H650,0.601
17,NCI-H1993,0.639
18,HCC-44,0.777
19,NCI-H647,0.626
20,NCI-H2126,0.459
21,NCI-H1755,0.715
22,PC-3 [JPC-3],0.423
23,NCI-H1792,0.867
24,NCI-H2087,0.522

# Same assay, conditions: first compound 0.253 µM
row,Cell Line,relative viability
1,LC-2-ad,0.948
2,NCI-H1651,0.886
3,COR-L23,1.07
4,HCC-827,0.212
5,RERF-LC-KJ,0.881
6,NCI-H1563,0.939
7,NCI-H3122,0.934
8,BEN,0.552
9,UMC-11,1.14
10,LCLC-97TM1,0.872
11,NCI-H2085,0.817
12,A-427,1.07
13,NCI-H727,0.927
14,NCI-H838,1.01
15,201T,1.03
16,NCI-H2228,0.853
17,LOU-NH91,0.745
18,NCI-H1666,0.778
19,NCI-H650,0.837
20,NCI-H1993,0.857
21,HCC-44,0.924
22,NCI-H647,1.07
23,NCI-H2126,0.746
24,NCI-H1755,1.07
25,PC-3 [JPC-3],0.486
26,NCI-H1792,0.906
27,NCI-H2087,1

# Same assay, conditions: first compound 0.8 µM
row,Cell Line,relative viability
1,LC-2-ad,0.972
2,NCI-H1651,0.857
3,COR-L23,0.937
4,HCC-827,0.168
5,RERF-LC-KJ,0.924
6,NCI-H1563,0.953
7,NCI-H3122,1.03
8,BEN,0.637
9,UMC-11,1.05
10,LCLC-97TM1,1.26
11,NCI-H2085,0.798
12,A-427,1.1
13,NCI-H727,0.868
14,NCI-H838,0.98
15,201T,1.06
16,NCI-H2228,1.11
17,LOU-NH91,0.825
18,NCI-H1666,0.821
19,NCI-H650,0.927
20,NCI-H1993,0.843
21,HCC-44,0.944
22,NCI-H647,1.04
23,NCI-H2126,0.747
24,NCI-H1755,1
25,PC-3 [JPC-3],0.493
26,NCI-H1792,0.824
27,NCI-H2087,1.05

# Same assay, conditions: first compound 2.53 µM
row,Cell Line,relative viability
1,LC-2-ad,0.931
2,NCI-H1651,0.767
3,COR-L23,1.02
4,HCC-827,0.181
5,RERF-LC-KJ,0.95
6,NCI-H1563,0.862
7,NCI-H3122,1.04
8,BEN,0.78
9,UMC-11,1.02
10,LCLC-97TM1,0.911
11,NCI-H2085,0.81
12,A-427,0.995
13,NCI-H727,0.942
14,NCI-H838,1.03
15,201T,1.05
16,NCI-H2228,0.916
17,LOU-NH91,0.733
18,NCI-H1666,0.649
19,NCI-H650,0.732
20,NCI-H1993,0.864
21,HCC-44,0.921
22,NCI-H647,1.1
23,NCI-H2126,0.79
24,NCI-H1755,1.01
25,PC-3 [JPC-3],0.49
26,NCI-H1792,0.915
27,NCI-H2087,1.05

# Same assay, conditions: first compound 8 µM
row,Cell Line,relative viability
1,LC-2-ad,0.92
2,NCI-H1651,0.746
3,COR-L23,0.84
4,HCC-827,0.178
5,RERF-LC-KJ,0.869
6,NCI-H1563,0.748
7,NCI-H3122,0.959
8,BEN,0.621
9,UMC-11,0.916
10,LCLC-97TM1,0.806
11,NCI-H2085,0.708
12,A-427,0.909
13,NCI-H727,0.915
14,NCI-H838,0.873
15,201T,0.969
16,NCI-H2228,0.789
17,LOU-NH91,0.725
18,NCI-H1666,0.716
19,NCI-H650,0.759
20,NCI-H1993,0.741
21,HCC-44,0.963
22,NCI-H647,0.97
23,NCI-H2126,0.71
24,NCI-H1755,1.02
25,PC-3 [JPC-3],0.478
26,NCI-H1792,0.836
27,NCI-H2087,0.807

# Compound: COC1=CC=C(C=C1)CN2C=CC3=C2C=C(C=C3)C(=O)NO + C[C@]1(O)C[C@@H](c2nc(-c3ccc4ccc(-c5ccccc5)nc4c3)c3c(N)nccn32)C1 [Linsitinib] (partner 1 µM)
# Assay: as above
# Conditions: first compound 0.08 µM
# Procedure, shortened: as §1
row,Cell Line,relative viability
1,LC-2-ad,0.783
2,NCI-H1651,0.939
3,COR-L23,0.558
4,HCC-827,0.994
5,RERF-LC-KJ,0.763
6,NCI-H1563,1.1
7,NCI-H3122,0.975
8,BEN,0.87
9,UMC-11,0.891
10,NCI-H2085,0.794
11,NCI-H727,0.214
12,201T,1.04
13,NCI-H2228,0.77
14,LOU-NH91,0.74
15,NCI-H1666,0.696
16,NCI-H650,0.793
17,NCI-H1993,0.738
18,HCC-44,0.568
19,NCI-H647,0.886
20,NCI-H2126,0.735
21,NCI-H1755,0.955
22,PC-3 [JPC-3],0.963
23,NCI-H1792,0.535
24,NCI-H2087,0.902

# Same assay, conditions: first compound 0.253 µM
row,Cell Line,relative viability
1,LC-2-ad,0.851
2,NCI-H1651,1.01
3,COR-L23,1.09
4,HCC-827,0.94
5,RERF-LC-KJ,0.883
6,NCI-H1563,1.18
7,NCI-H3122,1.04
8,BEN,0.875
9,UMC-11,0.974
10,LCLC-97TM1,0.212
11,NCI-H2085,0.921
12,A-427,1.08
13,NCI-H727,0.355
14,NCI-H838,1.13
15,201T,1.01
16,NCI-H2228,0.733
17,LOU-NH91,0.995
18,NCI-H1666,0.892
19,NCI-H650,0.849
20,NCI-H1993,0.783
21,HCC-44,0.69
22,NCI-H647,1.01
23,NCI-H2126,0.754
24,NCI-H1755,0.987
25,PC-3 [JPC-3],0.962
26,NCI-H1792,0.62
27,NCI-H2087,0.969

# Same assay, conditions: first compound 0.8 µM
row,Cell Line,relative viability
1,LC-2-ad,0.873
2,NCI-H1651,1.08
3,COR-L23,0.817
4,HCC-827,0.942
5,RERF-LC-KJ,0.867
6,NCI-H1563,1.26
7,NCI-H3122,1.03
8,BEN,0.904
9,UMC-11,1.06
10,LCLC-97TM1,0.225
11,NCI-H2085,0.931
12,A-427,1.11
13,NCI-H727,0.298
14,NCI-H838,1.13
15,201T,1.13
16,NCI-H2228,0.971
17,LOU-NH91,1.04
18,NCI-H1666,0.757
19,NCI-H650,0.95
20,NCI-H1993,0.785
21,HCC-44,0.681
22,NCI-H647,1.2
23,NCI-H2126,0.686
24,NCI-H1755,1
25,PC-3 [JPC-3],0.97
26,NCI-H1792,0.636
27,NCI-H2087,0.95

# Same assay, conditions: first compound 2.53 µM
row,Cell Line,relative viability
1,LC-2-ad,0.999
2,NCI-H1651,0.869
3,COR-L23,0.872
4,HCC-827,0.981
5,RERF-LC-KJ,0.901
6,NCI-H1563,1.18
7,NCI-H3122,1
8,BEN,0.869
9,UMC-11,0.959
10,LCLC-97TM1,0.206
11,NCI-H2085,0.925
12,A-427,1.16
13,NCI-H727,0.256
14,NCI-H838,1.08
15,201T,1.06
16,NCI-H2228,0.578
17,LOU-NH91,0.954
18,NCI-H1666,0.76
19,NCI-H650,0.936
20,NCI-H1993,0.759
21,HCC-44,0.705
22,NCI-H647,1.28
23,NCI-H2126,0.737
24,NCI-H1755,1.04
25,PC-3 [JPC-3],1
26,NCI-H1792,0.539
27,NCI-H2087,0.883

# Same assay, conditions: first compound 8 µM
row,Cell Line,relative viability
1,LC-2-ad,0.804
2,NCI-H1651,0.716
3,COR-L23,0.836
4,HCC-827,0.883
5,RERF-LC-KJ,0.945
6,NCI-H1563,1.12
7,NCI-H3122,0.997
8,BEN,0.907
9,UMC-11,0.938
10,LCLC-97TM1,0.156
11,NCI-H2085,0.934
12,A-427,1.1
13,NCI-H727,0.298
14,NCI-H838,0.961
15,201T,1.03
16,NCI-H2228,0.58
17,LOU-NH91,0.913
18,NCI-H1666,0.901
19,NCI-H650,0.725
20,NCI-H1993,0.741
21,HCC-44,0.637
22,NCI-H647,1.02
23,NCI-H2126,0.727
24,NCI-H1755,1.02
25,PC-3 [JPC-3],1.06
26,NCI-H1792,0.425
